Results as given in US7951359B2, “Compositions and methods for therapy or prevention of chemotherapy-induced neuropathy” (Merck Serono SA, priority 2004, dated 2011).

Experiments:
[1] = system: cisplatin induced neuropathy; assay: Hot plate test, therapeutic treatment of established cisplatin neuropathy; type: in vivo, rat; settings: 4-MC 10 μg/kg IP daily from day 23; after 2 weeks; p≦0.05
[2] = system: cisplatin induced neuropathy; assay: Hot plate test in cisplatin-treated rats, co-administration; type: in vivo, rat; settings: 4-MC 10 μg/kg IP daily; 3 weeks
Experimental: (§1) The rat was placed inside a glass cylinder of 17 cm height and 21 cm diameter on a heating-plate maintained at 52° C. (Medite OTS 40, Microm, Francheville, Rhône, France). The animal behavior was observed, particularly the licking of a foot and the adjusted leap. The latency before licking a foot or before jumping to escape the heat (adjusted leap) was recorded. The time needed to feel the thermal pain is related to the thermal sensitivity and tends to increase when thermal sensitivity is altered.

[3] = system: taxol induced neuropathy; assay: Electrophysiological monitoring in taxol induced neuropathy, co-administration; type: in vivo, rat
Experimental: The aim of the following experiment was to investigate the potential neuroprotective effect of IL6 in an additional model of chemotherapeutic induced neuropathy mediated by taxol. The potential preventive effect of IL-6 co-administration was tested. Administration of IL-6 was initiated together with taxol administration. The doses of IL-6 of 3 and 10 μg/kg were administered daily or in the case 10 μg/kg also only 3 times per week.
Females 10 weeks old aged Dark Agouti rats were used, 12 animals per group were included as following
The taxol was diluted in a solution of cremophor/ethanol/dextrose 5% and administered twice a week during 4 weeks.
4-MC and test compounds treatment was initiated the first day of intoxication and was stopped at the end of the study.
The study was performed on 8 weeks (1 week for the baseline, 4 weeks for the taxol intoxication and 3 weeks of recovery).
Control, taxol, and taxol-IL-6 co-administered group of rats at the indicated doses were subjected to electrophysiological monitoring to assess the effect of IL-6 in taxol-induced loss of fiber/nerve function.
(§2) Sensitive nerve conduction velocity (SNCV) was also recorded. The tail skin electrodes were placed as follows: a reference needle inserted at the base of the tail and an anode needle placed 30 mm away from the reference needle toward the extremity of the tail. A ground needle electrode was inserted between the anode and reference needles. The caudal nerve was stimulated with a series of 20 pulses (for 0.2 ms) at an intensity of 12.8 mA. The velocity was expressed in m/s.
H-wave reflex was recorded in the hind footpad muscle after stimulation of the sciatic nerve. […] The sciatic nerve was stimulated with a single 0.2 ms pulse at supramaximal intensity. The amplitude (mV) of H wave and the proportion of animal lacking H wave response were the parameters studied.

[4] = system: cisplatin induced neuropathy; assay: Morphometric analysis, therapeutic treatment of established cisplatin neuropathy; type: in vivo, rat; settings: 4-MC 10 μg/kg IP
Text: The number of degenerated and non-degenerated fibers on the entire surface of each nerve section was counted by an operator in a blinded fashion. All the results (except the data expressed as ratio value) were reported as percentage of changes in reference to the control value.

[5] = system: vincristine induced neuropathy; assay: Morphometric analysis of sciatic nerve in vincristine-treated rats; type: in vivo, rat
Experimental: Histomorphometric analyses were carried out as described in Example 18 at the completion of the experiments, to explore morphologic changes occurring in fiber and axon diameter and myelin thickness in rats treated with vincristine and in rats co-administrated with IL-6.
With vincristine, morphometric analysis was performed 2 week after the end of vincristine administration on 3 animals per group. The animals were anesthetized by IP injection of 100 mg/kg Imalgène 500®. A 5 mm segment of sciatic nerve was excised, fixed overnight with 4% glutaraldehyde (Sigma, L'Isle d'Abeau-Chesnes, France) in phosphate buffered saline (PBS) (pH=7.4) and maintained in 30% sucrose and stored at 4° C. until further processing. At the time of use, the nerve sample was post-fixed in 1% osmium tetroxide (Sigma, L'Isle d'Abeau-Chesnes, France) in PBS for 2 h, dehydrated in serial alcohol solution, and embedded in Epon. Embedded tissues were then placed at 70° C. during 3 days to allow polymerization of the tissue wax. Cross sections of 1.5 μm thick were performed and they were stained with a 1% toluidine blue solution (Sigma, L'Isle d'Abeau-Chesnes, France) for 2 min, dehydrated and mounted on Eukitt. Twelve sections per sample were examined using an optical microscope (Nikon, Tokyo, Japan) and analyzed using, a semi-automated digital image analysis software (Biocom, France). The fiber diameter (a), axon diameter (b), and myelin thickness (c) were measured as illustrated below.

[6] = system: vincristine induced neuropathy; assay: Electromyography (EMG) in vincristine-treated rats; type: in vivo, rat
Experimental: In parallel to behavioral tests, electrophysiological test as described in Example 17, were carried out to evaluate fiber/nerve function in vincristine-administered rats vis-à-vis rats co-administrated with IL-6.
(§3) Electrophysiological recordings were performed using a Neuromatic 2000M electromyograph (EMG) (Dantec, Les Ulis, France). Rats were anaesthetized by IP injection of 60 mg/kg ketamine chlorhydrate (Imalgene 500®, Rhône Merieux, Lyon, France). The normal body temperature was maintained around […] with a heating lamp and verified using a contact thermometer (Quick, Bioblock Scientific, Illkirch, France) placed on the tail surface.
(§4) Compound muscle action potential (CMAP) of M wave signal (or electrically evoked muscle potential) was recorded in the gastrocnemius muscle after stimulation of the sciatic nerve. M wave reflects the current developed during the action potential of muscle fibers. A reference electrode and an active needle were placed in the hind paw. A ground needle was inserted on the lower back of the rat. Sciatic nerve was stimulated with a single 0.2 ms pulse at supramaximal intensity. The […] of the motor wave was recorded and expressed in ms.
as §2
(§5) H-wave reflex was recorded in the hind footpad muscle after stimulation of the sciatic nerve. A reference electrode and a ground needle were placed on the lower back of the rat. The sciatic nerve was stimulated with a single 0.2 ms pulse at supramaximal intensity. The amplitude (mV) of H wave and the proportion of animal lacking H wave response were the parameters studied.

[7] = system: vincristine induced neuropathy; assay: Hot plate test in vincristine-treated rats; type: in vivo, rat
Experimental: as §1

[8] = system: cisplatin induced neuropathy; type: in vivo, rat; settings: 4-MC 10 μg/kg IP daily
Experimental: Electrophysiological monitoring in cisplatin-induced neuropathy model was carried out as described in Example 17. The objective was to assess the effect of co-administration with IL-6 in cisplatin-induced loss of fiber/nerve function.
as §3, §4, §2, §5

[9] = system: cisplatin induced neuropathy; type: in vivo, rat
Experimental: The drug was diluted in 0.9% sterile aqueous solution of sodium chloride.
4-MC was diluted in 0.9% sterile aqueous solution of sodium chloride and injected daily via IP route from day 23 to the end of the experiment.
Electrophysiological tests described in Example 17, were carried out in parallel to the behavioral tests (described in the preceding example) in cisplatin-established neuropathy model. The objective was to assess the therapeutic effect of IL-6 in cisplatin-induced loss of fiber/nerve function.
as §3, §2, §5

[10] = system: cisplatin induced neuropathy; assay: Morphometric analysis of sciatic nerve in cisplatin-treated rats, co-administration; type: in vivo, rat; settings: 4-MC 10 μg/kg IP daily
Experimental: The total number of fibers per nerve section was obtained from 3 randomized slices of each sample. The counting was performed on 2 selected fields per slice.

[11] = system: lung (SK-MES1) tumor cell line; assay: Cell survival by acid phosphatase activity assay, SK-MES1; type: cell-based, human; settings: 4 days; for decrease in cell survival versus control: cisplatin (2.5 μM), carboplatin (25 μM)
Experimental: (§6) The human lung (SK-MES1) and breast (MCF7) tumor cell lines were obtained from ATCC. The cell lines were maintained in Dulbecco's MEM medium (Gibco; Invitrogen, Cergy-Pontoise, France, ref. 41965039) supplemented with 1% antibiotic/antimicotic mixture solution (Gibco, ref. 15240062), and 10% heat-inactivated foetal bovine serum (Gibco, ref. F7524, batch 92K3387). The cells were amplified in Nunc tissue culture flasks (80 cm2) in a humidified incubator at 37° C. with 5% CO2 in 95% air. Cultures were sub-cultured twice a week.
(§7) The enzymatic activity has been proven to be proportional to the number of living cells (Ueda et al.; 1994).
(§8) Three days after the last replication, tumor cells were seeded in 96 well-plates (TPP, VWR International, Fontenay-sous-bois, France) at a density of 1,500 cells (MCF7 line) or 3,000 cells (SK-MES1 line) per well, in a total volume of 100 μl/well and incubated overnight in a humidified incubator at 37° C. with 5% CO2 in 95% air. […] IL-6 (in buffer solution at 1.8 mg/ml, PH: 7) was immediately added at concentrations of 0, 3, 12, 50 or 200 ng/ml.
(§9) Four days after the initiation of the intoxication, acid phosphatase activity (Example 21) in each cell culture was assessed.
(§10) After removal of the culture medium, cells were rinsed with phosphate-buffered saline (PBS, Gibco, ref. 14190-094) and further incubated for 90 min at 37° C. in 100 μl of buffer containing 0.1 mol/l sodium acetate (pH 5.5), 0.1% Triton X100 (Sigma, ref. T9284) and 10 mmol/l p-nitrophenyl phosphate (Sigma, ref. N9389). Reaction was stopped by addition of 10 μl of 1 mol/l sodium hydroxide aqueous solution (Laboratoire de Produit Chimiques de la Robertsau, Strasbourg, France; ref. 28.252.293). Absorbance of the colored solution was measured at 405 nm in a microplate reader (Labsystems Multiskan Bichromatic, EST-LAB, Strasbourg, France).
(§11) The results were expressed as percentage of optical density of the control cell cultures. The heights of the columns represent mean±SEM of percentages of 5-6 wells from two independent cultures.

[12] = system: breast (MCF7) tumor cell line; assay: Cell survival by acid phosphatase activity assay, MCF7; type: cell-based, human; settings: 4 days; for decrease in cell survival versus control: cisplatin (2.5 μM), carboplatin (25 μM)
Experimental: as §6, §7, §8, §9, §10, §11

[13] = Body weight in vincristine induced neuropathy rat model; settings: vincristine 0.15 mg/kg, vehicle-treated
Experimental: The experiments were carried out employing 10 weeks-old female Dark Agouti rats (Janvier, Le Genest-St-Isle, France). […] 4-MC is a standard compound with an established neuroprotective action, used at the dose of 10 μg/kg (n=10).
Vincristine (Tocris, Illkirch, France) was administered by an injection of a vincristine solution from day 0 to 5, from day 8 to 12 and from day 15 to 16 at a dose of 0.15 mg/kg. A vincristine solution (0.03 mg/ml) was prepared in saline.
IL-6 was diluted in saline containing 0.02% BSA and was administered via subcutanuous route every day from the first day of vincristine administration until the end of the experiment.

[14] = system: vincristine induced neuropathy; assay: Hindpaw skin biopsy, density of dermal nerve fibers in vincristine-treated rats; type: in vivo, rat; settings: vincristine intoxication
Experimental: A 5-10 mm diameter area of skin was punch-biopsied from the hindpaw. Skin samples were immediately fixed overnight in paraformaldehyde at 4° C., incubated (overnight) in 30% sucrose in 0.1 M PBS for cryoprotection, embedded in OCT and frozen at −80° C. until cryocut. 50 μm-thick cryosections were then cut vertical to the skin surface with a cryostat. Free-floating sections were incubated for 7 days in a bath of rabbit anti-protein gene product 9.5 (1:10000; Ultraclone, Isle of Man, UK) at 4° C. The sections were then processed to reveal immunoreactivity according to the ABC peroxidase method. Briefly, they were incubated in for 1 hr with biotinylated anti-goat antibody (1:200), then 30 min in the avidin biotinylated complex at room temperature. Peroxidase activity was visualized using DAB system. Sections were then counterstained with eosin or hematoxylin. Sections were dehydrated, cleared with bioclear and mounted on eukitt. The number of dermal nerves of 3 microscope fields was counted manually under 40 magnification view.

[15] = system: vincristine induced neuropathy; assay: Walking test (motor coordination) in vincristine-treated rats; type: in vivo, rat; settings: vincristine alone; after 2 and 3 weeks
Experimental: The motor coordination was assessed using walking test, which consists at measuring the time taken by a rat placed at one extremity of a 100 cm-long horizontal wooden rod of 5.5 cm diameter, 40 cm above the table, to cover a distance of 1 m on this rod. Three tests (maximum duration: 60 s each) were performed, and the mean value was calculated and retained as characteristic value. If the animal fell down, it was scored with a maximum of 60 s.

Structure (SMILES): Cc1ccc(O)c(O)c1 [4-MC, 4-methylcatechol]
- time of the first reaction to heat [1]: Reduction of the time of the first reaction to heat
- first reaction time versus cisplatin alone [2]: slight but not significant decrease
- prevention of H-wave amplitude reduction by taxol ([3]; 4-MC 10 μg/kg daily i.p.): not significant
- H wave latency under taxol ([3]; 4-MC 10 μg/kg daily i.p., weeks 3, 5, 6 and 7): improvement in H wave latency
- cisplatin-induced myelin sheath thinning [4]: did not interfere with cisplatin-induced myelin sheath thinning
- proportion of degenerated fibers ([4]; p>0.05): slight but not significant reduction
- decrease in axon diameter by vincristine ([5]; 4-MC 10 μg/kg IP daily): significantly reduced/prevented the decrease in axon diameter
- percentage of degenerated fibers in vincristine treated rats ([5]; 4-MC 10 μg/kg IP daily): decreased the percentage of degenerated fibers
- vincristine-induced fiber shrinkage ([5]; 4-MC 10 μg/kg IP daily): protected
- protection against loss of M wave amplitude ([6]; 4-MC 10 μg/kg IP daily with vincristine): protect the loss of M wave amplitude only transiently
- prevention of vincristine-induced nociception loss (hot plate) ([7]; 4-MC 10 μg/kg IP daily): did not appear to have any major preventive effect
- loss of H wave induced by cisplatin [8]: only a delayed and transient effect
- decrease in SNCV by cisplatin ([8]; only after 5 weeks): transiently prevented the decrease in SNCV
- cisplatin-induced H wave loss in amplitude ([9]; 4-MC 10 μg/kg IP daily from day 23): reversed the cisplatin-induced H wave loss in amplitude
- SNCV in cisplatin-treated animals ([9]; 4-MC 10 μg/kg IP, significant only 2 weeks after treatment initiation): appeared to improve SNCV
- cisplatin-induced decrease in fiber or axon diameter [10]: protected against the decrease in cisplatin-induced fiber diameter or axon
- loss of myelin wall by cisplatin [10]: significant protection against loss of myelin wall

Structure (SMILES): N.N.O=C([O-])C1(C(=O)[O-])CCC1.[Pt+2] [carboplatin]
- decrease in cell survival versus control [11]: about 50%
- decrease in cell survival versus control [12]: about 50%

Structure (SMILES): CC(=O)O[C@H]1C(=O)[C@@]2(C)[C@H]([C@H](OC(=O)c3ccccc3)[C@]3(O)C[C@H](OC(=O)[C@H](O)[C@@H](NC(=O)c4ccccc4)c4ccccc4)C(C)=C1C3(C)C)[C@]1(OC(C)=O)CO[C@@H]1C[C@@H]2O [taxol]
- SNCV versus non-treated control ([3]; taxol alone, 3 weeks): significantly slower
- H wave latency ([3]; taxol alone, 3 weeks after taxol treatment): significant increase
- H wave latency ([3]; taxol alone, 6 weeks after taxol treatment): dramatically increased
- decrease of cell survival ([11]; taxol, 'this concentration' (30 nM)): about 70%
- decrease in cell survival ([12]; taxol 30 nM): about 55%

Structure (SMILES): CC[C@]1(O)C[C@H]2CN(CCc3c([nH]c4ccccc34)[C@@](C(=O)OC)(c3cc4c(cc3OC)N(C=O)[C@H]3[C@@](O)(C(=O)OC)[C@H](OC(C)=O)[C@]5(CC)C=CCN6CC[C@]43[C@@H]65)C2)C1 [vincristine]
- decrease in cell survival versus control [11]: about 50%
- axon diameter ([5]; vincristine alone): significantly decreases
- myelin thickness versus control ([5]; vincristine alone): significantly reduced
- percentage of degenerated fibers versus control ([5]; vincristine alone): two times higher
- percentage of myelinated fibers versus control ([5]; vincristine alone): less than that in the control non-treated group
- sciatic nerve fiber diameter versus control ([5]; vincristine alone): significant decrease in fiber diameter
- body weight lost at completion of vincristine administration [13]: about 10%
- loss of M wave amplitude versus control ([6]; vincristine alone, 2 weeks): about 20%
- loss of SNCV ([6]; vincristine alone, 5 weeks after treatment initiation): about 10 m/s
- hot plate first reaction to heat versus control ([7]; vincristine alone, significant at 3 and 5 weeks): delayed first reaction to heat
- decrease in the density of epidermal nerve fibers [14]: more than 50%
- walking test performance versus non-treated controls [15]: significantly reduced
- decrease in cell survival versus control [12]: about 50%
